Patent US9776972B2, “Pyrazole derivatives as arginine methyltransferase inhibitors and uses thereof” (priority 2013, dated 2017)

Target: human PRMT3 (Homo sapiens, UniProt O60678)
Test: PRMT3 Biochemical Assay (3H-SAM Flashplate, peptide substrate)
Conditions: single experiment or average of multiple experiments
Text: S-adenosylmethionine (SAM), S-adenosylhomocysteine (SAH), bicine, Tween20, dimethylsulfoxide (DMSO), bovine skin gelatin (BSG), isopropyl-β-D-thiogalactopyranoside (IPTG), and Tris(2-carboxyethyl)phosphine hydrochloride solution (TCEP) were purchased from Sigma-Aldrich at the highest level of purity possible. ^3H-SAM was purchase from American Radiolabeled Chemicals with a specific activity of 80 Ci/mmol. 384-well streptavidin Flashplates were purchased from PerkinElmer.
Peptide containing the classic RMT substrate motif was synthesized with an N-terminal linker-affinity tag motif and a C-terminal amide cap by 21st Century Biochemicals. The peptide was purified by high-performance liquid chromatography (HPLC) to greater than 95% purity and confirmed by liquid chromatography mass spectrometry (LC-MS). The sequence was Biot-Ahx-[…]-amide (SEQ ID NO.:11).
Full-length human PRMT3 (NM_005788.3) isoform 1 transcript clone was amplified from an HEK 293 cDNA library and subcloned into pGEX-KG (GE Life Sciences). The resulting construct encodes an N-terminal GST tag and a thrombin cleavage sequence ([…] […] […] […]) (SEQ ID NO.: 12) fused directly to Cys 2 of PRMT3.
E. coli (BL21(DE3) Gold, Stratagene) made competent by the CaCl2 method were transformed with the PRMT3 construct and ampicillin selection. Protein over-expression was accomplished by growing the PRMT3 expressing E. coli clone and inducing expression with 0.3 mM IPTG at 16° C. The culture was grown for 12 hours, harvested by centrifugation, and stored at −80° C. for purification.
GST-tagged PRMT3 was eluted with 50 mM Tris, 2 mM glutathione, pH 7.1 and 50 mM Tris, 20 mM glutathione, pH 7.1. Pooled fractions were dialysed in 20 mM Tris, 50 mM NaCl, 5% glycerol, 1 mM EDTA, 1 mM DTT, pH7.5 (Buffer B) and applied to a Q Sepharose Fast Flow column. GST-tagged PRMT3 was eluted by 500 mM NaCl in buffer B. Pooled fractions were dialyzed in 25 mM phosphate buffer, 100 mM NaCl, 5% glycerol, 2 mM DTT, pH 6.8 (Buffer C) and loaded on to a ceramic hydroxyapatite column. GST-tagged PRMT3 eluted with 25-400 mM phosphate in buffer C. Protein was concentrated and buffer was exchanged to 20 mM Tris, 150 mM NaCl, 5% glycerol, 5 mM β-mercaptoethanol, pH7.8 by ultrafiltration. The purity of recovered protein was 70%.
General Procedure for PRMT3 Enzyme Assays on Peptide Substrates.
The assays were all performed in a buffer consisting of 20 mM Bicine (pH=7.6), 1 mM TCEP, 0.005% BSG, and 0.002% Tween 20, prepared on the day of use. Compounds in 100% DMSO (1 ul) were spotted into a polypropylene 384-well V-bottom plates (Greiner) using a Platemate Plus outfitted with a 384-channel head (Thermo Scientific). DMSO (1 ul) was added to Columns 11, 12, 23, 24, rows A-H for the maximum signal control and 1 ul of SAH, a known product and inhibitor of PRMT3, was added to columns 11, 12, 23, 24, rows I-P for the minimum signal control. A cocktail (40 ul) containing the PRMT3 enzyme was added by Multidrop Combi (Thermo-Fisher). The compounds were allowed to incubate with PRMT3 for 30 min at room temperature, then a cocktail (10 ul) containing SAM and peptide was added to initiate the reaction (final volume=51 ul). The final concentrations of the components were as follows: PRMT3 was 0.5 nM, ^3H-SAM was 100 nM, non-radiolabeled SAM was 1.8 uM, peptide was 330 nM, SAH in the minimum signal control wells was 1 mM, and the DMSO concentration was 2%. The assays were stopped by the addition of potassium chloride (10 ul) to a final concentration of 100 mM. 50 ul of the reaction in the 384-well polypropylene plate was then transferred to a 384-well Flashplate and the biotinylated peptides were allowed to bind to the streptavidin surface for at least 1 hour before being washed once with 0.1% Tween20 in a Biotek ELx405 plate washer. […]

Sequence of human PRMT3 (O60678 with tags, fused parts or gaps): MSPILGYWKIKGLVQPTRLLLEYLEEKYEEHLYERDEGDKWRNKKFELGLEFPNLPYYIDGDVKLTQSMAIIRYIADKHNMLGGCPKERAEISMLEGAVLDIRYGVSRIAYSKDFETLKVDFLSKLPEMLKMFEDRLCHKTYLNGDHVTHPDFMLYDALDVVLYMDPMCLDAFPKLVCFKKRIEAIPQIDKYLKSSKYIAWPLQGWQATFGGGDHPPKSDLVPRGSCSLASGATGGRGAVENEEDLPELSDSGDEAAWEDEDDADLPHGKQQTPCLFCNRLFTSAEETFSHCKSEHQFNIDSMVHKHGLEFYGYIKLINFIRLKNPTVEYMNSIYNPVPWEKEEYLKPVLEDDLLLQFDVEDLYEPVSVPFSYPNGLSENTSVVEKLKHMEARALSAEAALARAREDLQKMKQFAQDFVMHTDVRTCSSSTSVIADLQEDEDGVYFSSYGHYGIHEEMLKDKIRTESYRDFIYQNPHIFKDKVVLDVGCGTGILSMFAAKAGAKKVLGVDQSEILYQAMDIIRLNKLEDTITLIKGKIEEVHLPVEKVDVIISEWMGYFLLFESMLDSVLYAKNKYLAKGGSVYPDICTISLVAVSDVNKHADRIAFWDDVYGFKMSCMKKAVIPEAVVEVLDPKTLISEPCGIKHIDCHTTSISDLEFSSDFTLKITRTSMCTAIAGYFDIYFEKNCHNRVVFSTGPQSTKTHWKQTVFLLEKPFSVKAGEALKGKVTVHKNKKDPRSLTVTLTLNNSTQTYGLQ

Row | IC50 [µM] | Compound
1 | > 50 | COCCn1ncc(CN(C)CCN)c1-c1ccc(F)cc1 [Compound 6]
2 | 26 | CCn1ncc(CN(C)CCNC)c1-c1ccc(F)cc1 [Compound 7]
3 | > 50 | CCn1cc(CN(C)CCNC)c(-c2ccc(F)cc2)n1 [Compound 8]
4 | 3.14 | CN(CCN)Cc1c[nH]nc1-c1ccc(OCC(F)(F)F)cc1 [Compound 96]
5 | 0.684 | CN(CCN)Cc1c[nH]nc1-c1ccc(C2CCOCC2)cc1 [Compound 98]
6 | 7.26 | CN(CCN)Cc1n[nH]cc1-c1ccc(C#N)cc1 [Compound 100]
7 | 6.16 | CN(CCN)Cc1n[nH]cc1-c1ccc(Cl)cc1 [Compound 102]
8 | 9.83 | CN(CCN)Cc1n[nH]cc1-c1ccc(OC(F)(F)F)cc1 [Compound 105]
9 | 8 | COc1ccc(-c2n[nH]cc2CN(C)CCN)c(F)c1 [Compound 107]
10 | 9.91 | Cc1ccc(-c2n[nH]cc2CN(C)CCN)c(F)c1 [Compound 108]
11 | 7.21 | Cc1cc(C#N)ccc1-c1n[nH]cc1CN(C)CCN [Compound 110]
12 | 5.39 | CN(CCN)Cc1c[nH]nc1-c1cc(F)cc(F)c1 [Compound 111]
13 | 3.68 | CC(=O)c1cccc(-c2n[nH]cc2CN(C)CCN)c1 [Compound 112]
14 | 3.2 | CN(CCN)Cc1c[nH]nc1-c1ccc(OC2CC2)cc1 [Compound 114]
15 | 8.32 | CC(O)c1ccc(-c2n[nH]cc2CN(C)CCN)cc1 (centres unmarked) [Compound 115]
16 | 2.78 | CN(CCN)Cc1c[nH]nc1-c1ccc(C2CC2)cc1 [Compound 116]
17 | 2.3 | CN(CCN)Cc1c[nH]nc1-c1ccc(C(F)(F)F)c(Cl)c1 [Compound 117]
18 | 1.04 | CN(CCN)Cc1c[nH]nc1-c1ccc(Cl)c(F)c1 [Compound 118]

Row | IC50 [µM] | Compound
19 | 9.6 | CN(CCN)Cc1n[nH]cc1-c1ccc(OC2CC2)cc1 [Compound 119]
20 | 2.88 | CN(CCN)Cc1c[nH]nc1-c1cc(F)cc(Cl)c1 [Compound 121]
21 | 5.01 | CN(CCN)Cc1c[nH]nc1-c1cccc(Cl)c1 [Compound 122]
22 | 3.92 | CN(CCN)Cc1c[nH]nc1-c1cccc(Cl)c1F [Compound 123]
23 | 2.22 | CN(CCN)Cc1c[nH]nc1-c1ccc(F)c(Cl)c1 [Compound 124]
24 | 2.55 | Cc1ccc(-c2n[nH]cc2CN(C)CCN)cc1Cl [Compound 126]
25 | 5.65 | COc1cc(Cl)cc(-c2n[nH]cc2CN(C)CCN)c1 [Compound 127]
26 | 9.91 | Cc1c(F)cccc1-c1n[nH]cc1CN(C)CCN [Compound 129]
27 | 6.46 | COc1cccc(-c2n[nH]cc2CN(C)CCN)c1 [Compound 130]
28 | 3.57 | Cc1cccc(-c2n[nH]cc2CN(C)CCN)c1 [Compound 131]
29 | 4.1 | Cc1cc(Cl)ccc1-c1n[nH]cc1CN(C)CCN [Compound 133]
30 | 5.44 | COc1ccc(-c2n[nH]cc2CN(C)CCN)cc1F [Compound 134]
31 | 7.58 | CN(CCN)Cc1c[nH]nc1-c1cc(Cl)cc(Cl)c1 [Compound 137]
32 | 5.21 | CN(CCN)Cc1c[nH]nc1-c1ccccc1C#N [Compound 140]
33 | 3.47 | CN(CCN)Cc1c[nH]nc1-c1ccc(C(F)(F)F)c(F)c1 [Compound 141]
34 | 4.83 | COc1cc(-c2n[nH]cc2CN(C)CCN)ccc1F [Compound 142]
35 | 8.37 | CCN(CC)C(=O)c1ccc(-c2n[nH]cc2CN(C)CCN)cc1 [Compound 143]

Row | Compound | IC50 [µM]
36 | CC(C)Oc1ccc(-c2n[nH]cc2CN(C)CCN)cc1F [Compound 97] | 3.5
37 | COc1ccc(-c2n[nH]cc2CN(C)CCN)cc1Cl [Compound 125] | 4.32
38 | CN(CCN)Cc1c[nH]nc1-c1ccc(Cl)cc1F [Compound 132] | 3.98
